Molecular target: serotonin-1 receptors (5-HT1A and/or 5-HT1B)
Experiment: radioligand binding assay for serotonin-1 receptor affinity (IC50)
Conditions: receptor subtype not given
Excerpt: The affinities of the compounds of this invention for the various serotonin-1 receptors can be determined using standard radioligand binding assays as described in the literature. The 5-HT1A affinity can be measured using the procedure of Hoyer et al. (Brain Res., 376, 85 (1986)). The 5-HT1B affinity can be measured using the procedure of Heuring and Peroutka (J. Neurosci., 7, 894 (1987)).
The in vitro activity of the compounds of the present invention at the 5-HT1B binding site can be determined according to the following procedure. Bovine caudate tissue is homogenized and suspended in 20 volumes of a buffer containing 50 mM TRIS•hydrochloride (tris[hydroxymethyl]aminomethane hydrochloride) at a pH of 7.7. The homogenate is then centrifuged at 45,000 G for 10 minutes. The supernatant is then discarded and the resulting pellet resuspended in approximately 20 volumes of 50 mM TRIS•hydrochloride buffer at pH 7.7. […]
The inhibitor, control or vehicle is then incubated according to the following procedure. […] The percent inhibition can be calculated for each dose of the compound. An IC50 value can then be calculated from the percent inhibition values.
The activity of the compounds of the present invention for 5-HT1A binding ability can be determined according to the following procedure. […] The tissue is stored at −70° C. until ready for an experiment. […]

IC50: ≤ 100 nM
Structure (SMILES): CCC(O)(c1ccc(N2CC[C@@H](Cc3ccccc3N3CCN(C)CC3)C2=O)cn1)C(C)O (stereo in doubt) [Formula I, 1-[6-(1-ethyl-1,2-dihydroxy-propyl)-pyridin-3-yl]-3-[2-(4-methyl-piperazin-1-yl)-benzyl]-pyrrolidin-2-one]
